Assay results reported in patent US10752589B2, “Trigonelline based compounds” (SPHAERA PHARMA PVT. LTD., priority 2016, dated 2020).
Converted amounts (≈) assume the structure as drawn. “Also recorded” adds a separate entry of the source. Read-outs that look alike come from different tables or passages of the source.

Columns and labels:
[1] = Solubility of Paclitaxel modified drug in saline solvent systems by HPLC; conditions: for Fold increase in solubility: versus Paclitaxel; for Solubility compared with parent drug: aqueous solubility; for solubility: thermodynamic from solid
Method: Solubility was checked in different solvent systems.
Area under the curve for each were determined and based on that fold increase in solubility was determined.

[2] = Stability and solubility in dosing vehicle PEG400 and Normal saline; type: physicochemical; conditions: PEG400 and Normal saline in fixed composition
[3] = Pharmacokinetics in SD rats, IV dosing (Paclitaxel and 1001)
Method: Pharmacokinetics studies were carried out to evaluate the plasma exposure of modified drug of Paclitaxel in SD rats when dosed intravenously (IV). The results were compared with exposure of Paclitaxel using the same dosing vehicle. The dosing vehicle that was used in this study was PEG400 and Normal saline in fixed composition. […] 3 mpk and 1 mpk IV dosing was done for the modified drug and 3 mpk IV for Paclitaxel parent drug. After IV dosing of the modified drug blood was collected by serial bleeding at different time points in heparinized tubes. Blood samples were centrifuged at 10,000 rpm for 5 min at 4° C. to obtain the plasma, which were aspirated into separate labeled tubes and stored at −80° C. Extraction solvent was added to plasma, was vortexed and shaken on shaker for 10 minutes, centrifuged at 10,000 rpm for 10 minutes at 4° C. Supernatant was kept for analysis.
Acetonitrile and plasma calibration curves were generated and percentage of drug recovery from plasma determined Quantitative analysis was done by liquid chromatography tandem mass spectrometer (API3000 LC-MS/MS).

[4] = Pharmacokinetics in SD rats, IV dosing (Docetaxel and 1008); type: in vivo; conditions: for AUC / Cmax / Tmax / half-life: Sprague-Dawley, rat, plasma, PEG400 and Normal saline; for half-life: read-out: T1/2 elimination (converted)
Description: The results were compared with exposure of Docetaxel (10 mpk) using the same dosing vehicle.
Supernatant was kept for analysis.

[5] = Solubility in miliQ water by HPLC (area under the curve); type: physicochemical
Method: 1 mg/ml and 2 mg/ml solution of Mefloquine and Tadlafil respectively and equivalent weight of respective trigonelline modified compound (1011), compound (1005) of the present invention was taken in miliQ water, vortexed, centrifuged for 3 min, filtered and loaded on HPLC column (Zorbax Eclipse C18; Mobile Phase: A: 0.1% TFA, B: ACN; run time 15 min, Waters 2996 HPLC model).

[6] = 3 mg/Kg iv, PEG/Normal Saline (3 mpk 1001 = 2.1 mpk Paclitaxel delivered)
[7] = concentration used for HPLC analysis 2 mg/ml
[8] = concentration used for HPLC analysis 1 mg/ml

Q: With `CC(=O)O[C@H]1C(=O)C2(C)C([C@H](OC(=O)c3ccccc3)[C@]3(O)C[C@H](OC(=O)[C@H](OC(=O)c4ccc[n+](C)c4)[C@H](NC(=O)c4ccccc4)c4ccccc4)C(C)=C1C3(C)C)[C@]1(OC(C)=O)CO[C@@H]1C[C@@H]2O.[I-]` (stereo partly drawn) [Compound 1001, 3-((((1R,2R)-1-benzamido-3-(((2aR,4S,6R,9S,11S,12S,12bS)-6,12b-diacetoxy-12-(benzoyloxy)-4,11-dihydroxy-4a,8,13,13-tetramethyl-5-oxo-2a,3,4,4a,5,6,9,10,11,12,12a,12b-dodecahydro-1H-7,11-methanocyclodeca[3,4]benzo[1,2-b]oxet-9-yl)oxy)-3-oxo-1-phenylpropan-2-yl)oxy)carbonyl)-1-methylpyridin-1-ium iodide] as the molecule, how does the “Fold increase in solubility” value ([1]; Normal Saline with 5% Dimethylacetamide) read?
A: > 10,000 ×

Q: What about the “Fold increase in solubility” value ([1]; Normal Saline with 5% Dimethylsulfoxide) of the same molecule?
A: > 12,000 ×

Q: And the “Fold increase in solubility” value ([1]; Normal Saline with 9% N-Methylpyrrolidone)?
A: > 15,000 ×

Q: And the “Fold increase in solubility” value ([1]; Normal Saline)?
A: > 5000 ×

Q: And the “Solubility compared with parent drug” value [1]?
A: increased solubility; also recorded: better aqueous solubility

Q: And the solubility ([1]; aqueous with cosolvent or surfactant or cyclodextrin, Solubility in 5% DMA in normal saline, 5% DMA in normal saline)?
A: ~1000 µg/mL

Q: What about the solubility ([1]; aqueous with cosolvent or surfactant or cyclodextrin, Solubility in 5% DMSO in Normal saline, 5% DMSO in Normal saline) of the same molecule?
A: > 1200 µg/mL

Q: What about the solubility ([1]; aqueous with cosolvent or surfactant or cyclodextrin, Solubility in 9% NP in Normal Saline, 9% NP in Normal Saline) of the same molecule?
A: > 1500 µg/mL

Q: And the solubility ([1]; saline or isotonic, Solubility in Normal saline, Normal saline)?
A: > 500 µg/mL

Q: And the “Stability in the selected solvents” value ([1]; selected solvent systems in normal saline)?
A: stable

Q: What about the “Stability and solubility in the dosing vehicle” value [2] of the same molecule?
A: stable and soluble

Q: And the Cmax ([3]; 1 mg/Kg iv, PEG/Normal Saline (1 mpk 1001 = 0.71 mpk Paclitaxel delivered))?
A: 2384 nm

Q: What about the Cmax [3, 6] of the same molecule?
A: 8620 nm

Q: What about the “Fold increase in the AUC” value ([3]; iv, versus Paclitaxel) of the same molecule?
A: more than 10 fold

Q: And the “Fold increase in the Cmax” value ([3]; iv, versus Paclitaxel)?
A: more than 80 folds

Q: With `CC(=O)O[C@@]12CO[C@@H]1C[C@H](O)[C@@]1(C)C(=O)[C@H](O)C3=C(C)[C@@H](OC(=O)[C@H](OC(=O)c4ccc[n+](C)c4)[C@@H](NC(=O)OC(C)(C)C)c4ccccc4)C[C@@](O)([C@@H](OC(=O)c4ccccc4)[C@H]21)C3(C)C.[I-]` [Compound 1008, 3-((((2R,3S)-1-(((2aR,4S,4aS,6R,9S,11S,12S,12aR,12bS)-12b-acetoxy-12-(benzoyloxy)-4,6,11-trihydroxy-4a,8,13,13-tetramethyl-5-oxo-2a,3,4,4a,5,6,9,10,11,12,12a,12b-dodecahydro-1H-7,11-methanocyclodeca[3,4]benzo[1,2-b]oxet-9-yl)oxy)-3-((tert-butoxycarbonyl)amino)-1-oxo-3-phenylpropan-2-yl)oxy)carbonyl)-1-methylpyridin-1-ium iodide] as the molecule, how does the “Solubility compared with parent drug” value [1] read?
A: better aqueous solubility

Q: What about the “Exposure compared to the parent drug” value ([4]; IV, 1008 3 mpk versus Docetaxel 10 mpk) of the same molecule?
A: significantly higher exposure

Q: What about the “Pharmacokinetics compared to the original compound” value ([4]; IV, versus Docetaxel) of the same molecule?
A: enhanced pharmacokinetics

Q: What about the AUC ([4]; 3 mg/kg, 3 mpk IV) of the same molecule?
A: 1.04 µM·h

Q: And the Cmax ([4]; 3 mg/kg, 3 mpk IV)?
A: 6.92 µM

Q: What about the Tmax ([4]; 3 mg/kg, 3 mpk IV) of the same molecule?
A: 4.8 min

Q: And the half-life ([4]; 3 mg/kg, 3 mpk IV)?
A: 107 min

Q: And the “Stability and solubility in the dosing vehicle” value [2]?
A: stable and soluble

Q: Which “Aqueous solubility over parent drug” value [5] does the source give for `CN1CC(=O)N2[C@H](c3ccc4c(c3)OCO4)c3c(c4ccccc4n3C(=O)c3ccc[n+](C)c3)C[C@@H]2C1=O` [Compound 1005, 3-((6R,12aR)-6-(benzo[d][1,3]dioxol-5-yl)-2-methyl-1,4-dioxo-1,2,3,4,6,7,12,12a-octahydropyrazino[1′,2′:1,6]pyrido[3,4-b]indole-7-carbonyl)-1-methylpyridin-1-ium iodide] here?
A: significant increase

Q: What about the “Fold increase in solubility for equiv. wt of DM using HPLC” value ([5]; 2 mg/ml, versus parent Tadalafil) of the same molecule?
A: 80 fold

Q: And the solubility [5, 7]?
A: Completely

Q: For `C[n+]1cccc(C(=O)N2CCCC[C@@H]2[C@@H](O)c2cc(C(F)(F)F)nc3c(C(F)(F)F)cccc23)c1` [Compound 1011, 3-((R)-2((S)-(2,8-bis(trifluoromethyl)quinolin-4 yl)(hydroxy)methyl)piperidine-1-carbonyl)-1-methylpyridin-1-ium], which “Aqueous solubility over parent drug” value [5] is on record?
A: significant increase

Q: And the “Fold increase in solubility for equiv. wt of DM using HPLC” value ([5]; 1 mg/ml, versus parent Mefloquine)?
A: 2.4 fold

Q: And the solubility [5, 8]?
A: Completely

Q: Which AUC ([4]; 10 mg/kg, 10 mpk IV) does the source give for `CC(=O)O[C@@]12CO[C@@H]1C[C@H](O)[C@@]1(C)C(=O)[C@H](O)C3=C(C)[C@@H](OC(=O)[C@H](O)[C@@H](NC(=O)OC(C)(C)C)c4ccccc4)C[C@@](O)([C@@H](OC(=O)c4ccccc4)[C@H]21)C3(C)C` [Docetaxel, reference compound] here?
A: 0.897 µM·h

Q: What about the Cmax ([4]; 10 mg/kg, 10 mpk IV) of the same molecule?
A: 0.495 µM

Q: And the Tmax ([4]; 10 mg/kg, 10 mpk IV)?
A: 4.8 min

Q: And the half-life ([4]; 10 mg/kg, 10 mpk IV)?
A: 124 min

Q: Which solubility [5, 7] does the source give for `CN1CC(=O)N2[C@H](c3ccc4c(c3)OCO4)c3[nH]c4ccccc4c3C[C@@H]2C1=O` [Tadalafil, reference compound] here?
A: Very poor

Q: Which “Solubility in 5% DMA in normal saline” value ([1]; 5% DMA in normal saline) does the source give for `CC(=O)O[C@H]1C(=O)[C@@]2(C)[C@H]([C@H](OC(=O)c3ccccc3)[C@]3(O)C[C@H](OC(=O)[C@H](O)[C@@H](NC(=O)c4ccccc4)c4ccccc4)C(C)=C1C3(C)C)[C@]1(OC(C)=O)CO[C@@H]1C[C@@H]2O` [Paclitaxel, reference compound] here?
A: Not soluble

Q: What about the “Solubility in 5% DMSO in Normal saline” value ([1]; 5% DMSO in Normal saline) of the same molecule?
A: Not soluble

Q: What about the “Solubility in 9% NP in Normal Saline” value ([1]; 9% NP in Normal Saline) of the same molecule?
A: Not soluble

Q: What about the solubility ([1]; normal saline, saline or isotonic, Solubility in Normal saline) of the same molecule?
A: 0.1 µg/mL (≈ 0.117 µM)

Q: What about the Cmax [3, 6] of the same molecule?
A: 104 nm

Q: With `OC(c1cc(C(F)(F)F)nc2c(C(F)(F)F)cccc12)C1CCCCN1` (stereo not shown) [Mefloquine, reference compound] as the molecule, how does the solubility [5, 8] read?
A: Poor
